Laboratory results from article PMC9304066, “H2S biogenesis by cystathionine beta-synthase: mechanism of inhibition by aminooxyacetic acid and unexpected role of serine” (Cellular and Molecular Life Sciences: CMLS, 2022).
Where “and” joins values, the source holds several entries; their conditions need not be identical. Equal values may be shown once.

Assays:
tScCBS [1] = target: T1, tScCBS (Saccharomyces cerevisiae, UniProt P32582); assay: Kinetics of AOAA binding to tScCBS and displacement by substrate, followed by absorption spectra
T1 construct: 6xHis (C); made in house
T1 sequence (P32582 1-345): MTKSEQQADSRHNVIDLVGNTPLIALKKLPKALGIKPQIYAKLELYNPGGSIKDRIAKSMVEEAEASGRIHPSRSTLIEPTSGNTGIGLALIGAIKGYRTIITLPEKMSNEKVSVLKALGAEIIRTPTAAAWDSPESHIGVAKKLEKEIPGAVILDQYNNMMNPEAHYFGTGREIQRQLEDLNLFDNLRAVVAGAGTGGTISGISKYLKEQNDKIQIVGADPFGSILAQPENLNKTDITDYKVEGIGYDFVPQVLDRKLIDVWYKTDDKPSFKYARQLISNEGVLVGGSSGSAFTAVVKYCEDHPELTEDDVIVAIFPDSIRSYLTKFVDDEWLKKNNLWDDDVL
Method: (§1) UV − Vis and fluorescence spectroscopy. Absorption spectra were collected on a Tecan Infinite M200 Pro spectrophotometer in a buffer containing 50 mM Tris–HCl pH 8.5, 20 mM NaCl and 0.5 mM tris(2-carboxyethyl)phosphine (TCEP). All the spectra were carried out with a protein concentration of 1 mg/mL with a 1 cm path-length quartz cuvette in a total volume of 150 µL. tScCBS was titrated directly in a cuvette by successive additions of different concentrations of AOAA, Ser and Cys, respectively, and spectra were recorded between 240 and 600 nm after an incubation time of 3 min at RT. Fluorescence emission spectra were collected under the same conditions upon PLP excitation at 410 nm. Blank spectra were subtracted from sample spectra.
Fig. 2 Spectroscopic rescue of AOAA-inhibited tScCBS by Ser. A Changes in the absorption spectra of tScCBS upon addition of 20 µM AOAA (cyan lines) followed for 1 h. Subsequently, 1 mM Ser (gray lines) was added and spectral changes were followed for additional 1 h. B Representative kinetic fitting of AOAA binding to tScCBS followed at 412 nm. C Representative kinetic fitting of AOAA displacement from tScCBS by Ser by following changes at 370 nm and 460 nm. The kinetic parameters of the observed processes are shown as insets in panels B and C. Far-UV (D) and near-UV (E) CD spectra of tScCBS (black), tScCBS complexed with 20 µM AOAA (cyan) or 1 mM Ser (magenta) and tScCBS complexed with 20 µM AOAA followed by 1 h incubation with 1 mM Ser (green).

tScCBS [2] = target: T1, tScCBS; assay: CBL-LDH coupled-coupled CBS assay, tScCBS; type: biochemical
Method: CBS coupled-coupled assay. CBS canonical activity utilizing Ser and Hcy was determined using cystathionine beta-lyase (CBL) and lactate-dehydrogenase (LDH) coupled-coupled assay as described previously with a few modifications. Native L-LDH from rabbit muscle was purchased from Sigma (catalog no. L2500) and recombinant CBL was purchased from Creative Enzymes (catalog no. NATE-1146). In a final volume of 150 µL, the reaction mixture contained 50 mM Tris–HCl pH 8.9, 20 µM PLP, 500 µM NADH, 1.3 µM LDH, 0.1 µM CBL, 0–20 mM Ser (or 0–50 mM Cys) and 500 ng of tScCBS or HsCBS. Assays with HsCBS were carried out in the absence or presence of 500 µM CBS allosteric activator S-adenosylmethionine (SAM). The reaction was triggered by the addition of 2 mM Hcy and the oxidation of NADH to NAD^+ was followed by monitoring the decrease in absorbance at 340 nm over time (ε340 = 6220 M^−1.cm^−1). […] All measurements were performed in triplicates using Tecan Infinite 200 PRO microplate reader. Kinetic data were analyzed using GraphPad Prism software.

tScCBS [3] = target: T1, tScCBS; assay: UV-Vis absorption titration of tScCBS (dissociation constants); type: binding; settings: tScCBS 1 mg/mL, pH 8.5; decrease in absorbance at 412 nm (AOAA), increase at 460 nm (Ser) or 440 nm (Cys); 3 min incubation; read-out: Dissociation constant Kd (UV-Vis absorption)
Method: (§2) CBS enzymes. Recombinant truncated Saccharomyces cerevisiae CBS lacking the C-terminal regulatory domain (residues 346–507) and carrying the C-terminal 6xHis tag (tScCBS) was prepared as described previously. Engineered recombinant Homo sapiens CBS lacking a loop protruding from the central β-strand of the CBS2 domain corresponding to the residues 516–525 (HsCBS; described in detail in [21]) was purchased from GenScript.
as §1

tScCBS [4] = target: T1, tScCBS; assay: CBS H2S production assay (AzMC fluorometric), tScCBS; type: biochemical
Method: CBS H2S production assay. H2S-producing activity of CBS, utilizing Cys and Hcy, was determined using a fluorometric assay employing the H2S-selective fluorescent probe 7-azido-4-methylcoumarin (AzMC) as described previously. The reaction mixture in a total volume of 200 µL contained 50 mM Tris–HCl pH 8.6, 5 μM PLP, 2 mM Hcy, 10 μM AzMC and 500 ng tScCBS or HsCBS. The plate was incubated for 10 min at 37°C and the enzymatic activity was triggered by adding 0–50 mM Cys. The fluorescence of the mixtures at 450 nm (excited at 365 nm) was followed for 2 h at 37°C. All measurements were performed in triplicates using Tecan Infinite 200 PRO microplate reader. Kinetic data were analyzed using GraphPad Prism software.

HEK293 cells [5] = assay: Cell proliferation (BrdU); type: cell-based, human; settings: Ser concentrations above 3 mM, 'up to'
Method: (§3) Cell culture. The human embryonic kidney cell line HEK293 (ATCC CRL-1573) was cultured in Dulbecco’s Modified Eagle Medium (DMEM) containing 4.5 g/L glucose. The culture medium was supplemented with 10% (v/v) heat-inactivated fetal bovine serum, 2 mM Glutamax, non-essential amino acids, 100 U/ml penicillin and 100 μg/ml streptomycin. Cells were grown in a humidified incubator at 37 °C and 5% CO2 atmosphere. Cell viability and proliferation were assessed using MTT and BrdU assay, respectively, essentially as described previously.

tScCBS [6] = target: T1, tScCBS; assay: Fluorescence emission titration of tScCBS (PLP excitation at 410 nm); type: binding; settings: tScCBS 1 mg/mL, pH 8.5; decrease in emission at 520 nm, excitation 410 nm; read-out: Dissociation constant Kd (fluorescence)
Method: as §2, §1

HEK293 cells [7] = assay: Cell viability (MTT); type: cell-based, human; settings: Ser 0.15–10 mM
Method: as §3

Rate constant k of AOAA displacement from tScCBS by Ser (tScCBS [1]; 1 mM Ser added after 1 h with 20 µM AOAA, changes at 370 nm and 460 nm) | Slower formation of PLP-aminoacrylate intermediate compared with PLP-AOAA oxime formation (tScCBS [1]; 1 mM Ser after 20 µM AOAA) | Kd (tScCBS [6]) | Recovery of activity of AOAA-inhibited enzyme (tScCBS [4]; tScCBS, 1 mM Ser after 200 µM AOAA incubation, then desalting) | SMILES | Rate constant k of PLP-AOAA oxime intermediate formation (tScCBS [1]; 20 µM AOAA added to tScCBS, followed at 412 nm) | Reduction of activity catalyzing condensation of Cys and Hcy yielding H2S (tScCBS [2]; AOAA-inhibited tScCBS (200 µM AOAA)) | Effect on condensation of Ser and Hcy (canonical reaction) (tScCBS [2]; tScCBS inhibited by 200 µM AOAA, 5 mM Ser + 2 mM Hcy) | Kd (tScCBS [3]) | Inhibition of CBS activity (tScCBS [4]; 200 µM AOAA, then excess removed by desalting column, range printed for tScCBS and HsCBS together) | IC50 (tScCBS [4]; tScCBS, AzMC assay, 5 mM Cys + 2 mM Hcy) | Increase of cellular proliferation (HEK293 cells [5]) | Cell viability (HEK293 cells [7])
– | – | – | – | NOCC(=O)O [AOAA, aminooxyacetic acid] | 0.22 min⁻¹ and 0.22 ± 0.05 min⁻¹ | 85% | not impaired | ~6 µM | 75–92% | 9.1 µM | – | –
0.07 ± 0.01 min⁻¹ | approximately 3 × | 39.5 ± 8.26 µM | substantial recovery | N[C@@H](CO)C(=O)O [Ser, serine] | – | – | – | ~58 µM and 58.6 µM | – | – | ~ 18% | did not affect
